Reference: patent US20050148495A1, “Methods and materials including for treating acne” (priority 2003, published 2005)
Non-standard residues stand in square brackets, D forms with d. Residues, ends and D or L forms follow the SMILES beside them. d1Nal = N[C@H](Cc1cccc2ccccc12)C(=O)O

System: marginal ear vein of rabbits
Experiment: Intravenous efficacy tests in rabbits (local vein findings)
Assay type: in vivo, rabbit
Conditions: multiple infusions, 1-20 mg/kg/day
Description: A series of efficacy studies with XMP.629 was conducted where slow IV push or short term (5 to 30 min) intravenous infusions were given through the marginal ear vein at 0.1 to 1.0 mg/mL to rabbits, some of whom were previously infected with Staphylococcus aureus, E. coli, or other bacteria, or Candida albicans. […] Due to the swelling, the veins could not be infused after two to five administrations of 1-20 mg/kg/day of XMP.629. […] Secondary changes in the surrounding tissue included edema, regional fibroplasia, acute hemorrhage, and regional hemorrhagic necrosis, as well as the presence of inflammation. These macroscopic changes were similar to the changes observed in the tail veins of rats and mice in other efficacy studies conducted.

CC(C)C[C@@H](NC(=O)[C@H](N)CCCCN)C(=O)N[C@H](Cc1ccccc1)C(=O)N[C@H](CCCNC(=N)N)C(=O)N[C@H](Cc1cccc2ccccc12)C(=O)N[C@H](CCC(N)=O)C(=O)N[C@H](C)C(=O)N[C@H](CCCCN)C(=O)N[C@H](Cc1cccc2ccccc12)C(N)=O [XMP.629, NH2-lys-leu-phe-arg-(3-(1-naphthyl)-ala)-gln-ala-lys-(3-(1-naphthyl)-ala)-CONH2] (H-[dK][dL][dF][dR][d1Nal][dQ][dA][dK][d1Nal]-NH2)
gross macroscopic changes at the infused vein: swelling and hemorrhage into the perivascular space
